In US11578095B2, “Compositions and methods for synthesizing 5'-Capped RNAs” (TriLink Biotechnologies, LLC, priority 2015, dated 2023):

How the values were obtained:
T7 RNA polymerase [1] = molecular target: T1, T7 RNA polymerase (Escherichia phage T7, UniProt P00573); format: biochemical, T7 bacteriophage; details: Primer/NTP Formulation 1: 6 mM primer, 1.5 mM GTP, 7.5 mM each ATP, CTP, UTP; capped peaks/(capped + 5′ OH peak)
T1 construct: purchased New England Biolabs M0251
Description: A double stranded DNA transcription template encoding firefly luciferase was generated by polymerase chain reaction. The +1 template nucleotide was 2′-deoxycytidine. Transcription reactions were assembled with 25 ug/mL transcription template, 40 mM Tris-HCl (pH 8.0), 27 mM MgCl2, 2 mM spermidine, 10 mM DTT, 0.002% Triton X-100, 1000 unit/mL murine RNase inhibitor (New England Biolabs catalog #M0314), 2 unit/mL inorganic pyrophosphatase (New England Biolabs catalog #M2403), 4000 units/mL T7 RNA polymerase (New England Biolabs catalog #M0251), 6 mM ARCA (^m7G3′OmepppGG), 1.5 mM GTP, 7.5 mM ATP, 7.5 mM CTP and 7.5 mM UTP. Transcriptions were incubated at 37° C. for 2 hours. Reactions were supplemented with 10 mM Tris-HCl (pH 7.6), 2.5 mM MgCl2, 0.5 mM CaCl2 and 100 units/mL DNase I (New England Biolabs catalog #M0303) and incubated for 1 hour at 37° C. The resulting mRNAs were purified using an RNeasy Maxi kit (Qiagen catalog #75162) according to manufacturer's instructions. mRNAs were eluted in water and dephosphorylated by adjusting the solution to 50 mM Bis-Tris-Propane HCl (pH 6.0), 1 mM MgCl2, 0.1 mM ZnCl2 and 250 units/mg Antarctic phosphatase (New England Biolabs catalog #M0289). The reaction were incubated at 37° C. for 1 hour. The resulting mRNAs were purified using an RNeasy Maxi kit (Qiagen catalog #75162) according to manufacturer's instructions. mRNAs were eluted in water.
A double stranded firefly luciferase DNA transcription template specific for each trimer is generated by polymerase chain reaction. These templates differed in template nucleotides +1 and +2. For a given trimer, template nucleotide +1 was complementary to B1 (the nucleotide destined to become transcript nucleotide +1). Likewise template nucleotide +2 was complementary to […] (the nucleotide destined to become transcript nucleotide +2; see Example 10)). Transcription reactions are assembled with 25 ug/mL transcription template, 40 mM Tris-HCl (pH 8.0), 27 mM MgCl2, 2 mM spermidine, 10 mM DTT, 0.002% Triton X-100, 1000 unit/mL murine RNase inhibitor (New England Biolabs catalog #M0314), 2 unit/mL inorganic pyrophosphatase (New England Biolabs catalog #M2403), 4000 units/mL T7 RNA polymerase (New England Biolabs catalog #M0251) and 6 mM of initiating capped oligonucleotide primer, 1.5 mM GTP and 7.5 mM each of ATP, CTP and UTP. In subsequent examples, this primer/NTP formulation will be referred to as Primer/NTP Formulation 1. It is clear to one skilled in the art that other polymerases such as T7, T3 or SP6 RNA polymerases could be used instead of T7 RNA polymerase to perform the same function by using their respective promoters. Transcription reaction mixtures are incubated at 37° C. for 2 hours. Reactions are supplemented with 10 mM Tris-HCl (pH 7.6), 2.5 mM MgCl2, 0.5 mM CaCl2 and 100 units/mL DNase I (New England Biolabs catalog #M0303) and incubated for 1 hour at 37° C. The resulting mRNAs are purified using an RNeasy Maxi kit (Qiagen catalog #75162) according to manufacturer's instructions. mRNAs are eluted in water and dephosphorylated by adjusting the solution to 50 mM Bis-Tris-Propane HCl (pH 6.0), 1 mM MgCl2, 0.1 mM ZnCl2 and 250 units/mg Antarctic phosphatase (New England Biolabs catalog #M0289). The reaction is incubated at 37° C. for 1 hour. The resulting mRNAs are purified using an RNeasy Maxi kit (Qiagen catalog #75162) according to manufacturer's instructions. mRNAs are eluted in water.
Initiating capped oligonucleotide primer ^7mG3′OmepppA2′OmepG2′OmepG were used in transcription. Transcription were carried out as in Example 11 with the following modifications. A double stranded DNA transcription template specific for tetramer was generated by polymerase chain reaction. The template nucleotide +1 (2′-deoxythymidine) was complementary to Adenosine (the first nucleotide of the primer destined to become a transcript nucleotide +1).

T7 RNA polymerase [2] = molecular target: T1, T7 RNA polymerase; experiment: Capping assay (LC-MS) of mRNA made with ^m7GpppA2′OmepG on "TC" vs "CC" transcription template; format: biochemical, T7 bacteriophage
Description: (§1) A double stranded firefly luciferase DNA transcription template was used with 2′-deoxythymidine and 2′-deoxycytidine residues at template positions +1 and +2, respectively. Two transcription reactions were assembled with 25 ug/mL transcription template, 40 mM Tris-HCl (pH 8.0), 27 mM MgCl2, 2 mM spermidine, 10 mM DTT, 0.002% Triton X-100, 1000 unit/mL murine RNase inhibitor (New England Biolabs catalog #M0314), 2 unit/mL inorganic pyrophosphatase (New England Biolabs catalog #M2403), 4000 units/mL T7 RNA polymerase (New England Biolabs catalog #M0251). The two transcriptions differed in the amount of initiating capped oligonucleotide, amount of NTPs and the identity of NTPs. The first transcription was designed to mimic the transcription conditions of Ishikawa et al. (Nucleic Acids Symposium Series No. 53:129 (2009)). This transcription reaction contained 6 mM of ^m7GpppA2′OmepG initiating capped oligonucleotide primer, 0.9 mM GTP and 7.5 mM of ATP, CTP and UTP. In subsequent examples this primer/NTP formulation will be referred to as Primer/NTP Formulation 2. In this formulation, the initiating oligonucleotide primer was in greater than 6 fold excess over GTP. The second transcription used 5 mM of ^m7GpppA2′OmepG initiating capped oligonucleotide primer, 5 mM GTP, ATP, CTP and pseudouridine triphosphate […]. In subsequent examples this primer/NTP formulation will be referred to as Primer/NTP Formulation 3. In Primer/NTP Formulation 3, the GTP concentration was increased in order to produce commercially useful amounts of RNA. It is clear to one skilled in the art that other polymerases such as T7, T3 or SP6 RNA polymerases could be used instead of T7 RNA polymerase to perform the same function by using their respective promoters. Transcription reaction mixtures are incubated at 37° C. for 2 hours. Reactions were supplemented with 10 mM Tris-HCl (pH 7.6), 2.5 mM MgCl2, 0.5 mM CaCl2 and 100 units/mL DNase I (New England Biolabs catalog #M0303) and incubated for 1 hour at 37° C. The resulting mRNAs were purified using an RNeasy Maxi kit (Qiagen catalog #75162) according to manufacturer's instructions. mRNAs were eluted in water and dephosphorylated by adjusting the solution to 50 mM Bis-Tris-Propane HCl (pH 6.0), 1 mM MgCl2, 0.1 mM ZnCl2 and 250 units/mg Antarctic phosphatase (New England Biolabs catalog #M0289). The reaction was incubated at 37° C. for 1 hour for Primer/NTP Formulation 2 and 3 hours for Primer/NTP Formulation 3 hour. The resulting mRNAs were purified using an RNeasy Maxi kit (Qiagen catalog #75162) according to manufacturer's instructions. mRNAs were eluted in water. The purified transcription yields with Primer/NTP Formulation 2 and 3 were 0.7 milligram/milliliter transcription reaction (mg/mL) and 3.9 mg/mL transcription reaction, respectively.
A double stranded firefly luciferase DNA transcription template was used in which the +1 and +2 template nucleotides were cytidines and thus not completely complementary to the ^m7GpppA2′OmepG initiating capped oligonucleotide primer. Two transcription reactions were assembled with 25 ug/mL transcription template, 40 mM Tris-HCl (pH 8.0), 27 mM MgCl2, 2 mM spermidine, 10 mM DTT, 0.002% Triton X-100, 1000 unit/mL murine RNase inhibitor (New England Biolabs catalog #M0314), 2 unit/mL inorganic pyrophosphatase (New England Biolabs catalog #M2403), 4000 units/mL T7 RNA polymerase (New England Biolabs catalog #M0251). The two transcriptions differed in the amount of initiating capped oligonucleotide and NTPs. The first transcription was designed to mimic the transcription conditions of Ishikawa et al. (Nucleic Acids Symposium Series No. 53: 129 (2009)). This transcription reaction contained Primer/NTP Formulation 2. The second transcription used Primer/NTP Formulation 3. It is clear to one skilled in the art that other polymerases such as T7, T3 or SP6 RNA polymerases could be used instead of T7 RNA polymerase to perform the same function by using their respective promoters. […]

T7 RNA polymerase [3] = molecular target: T1, T7 RNA polymerase; experiment: In vitro transcription of firefly luciferase template, purified transcription yield; format: biochemical, T7 bacteriophage
Description: as §1, with “reaction, respectively. […]” for “reaction, respectively.”

THP-1 cells = experiment: Translation of luciferase mRNAs in differentiated THP-1 cells; format: cell-based; details: 100 ng mRNA per well
Description: In order to assess the expression of luciferase mRNAs generated in Examples 14 and 15, mRNAs were transfected into THP-1 cells (ATCC, Catalog #TIB-202) with six replicates. THP-1 cells were cultured in ATCC formulated RPMI-1640 (ATCC, Catalog #30-2001) supplemented with 10% FBS, sodium pyruvate and penicillin/streptomycin at 37° C. under an atmosphere of 5% CO2. Cells were seeded at 2E+05 cells per well in a 24-well plate format in the presence of the phorbol ester 12-O-Tetradecanoylphorbol-13-acetate (TPA; Cell Signaling Technologies, Catalog #4174) to induce differentiation. Cells were transfected with 100 ng of mRNA per well 72 hours after seeding. For comparison, cells were also transfected with a Cap0 luciferase mRNA generated by initiation with ARCA. At 20 hours post-transfection, cells were harvested and luciferase activity was measured using a ONE-Glo Luciferase Assay System kit (Promega Catalog #E6120) according to the manufacturer's recommendations. Luminescence was measured using a GloMax-Multi+Detection System instrument according to the manufacturer's recommendations. Data were graphed as the mean of six replicates +/−the standard deviation from the mean. Data were analyzed using the Unpaired t-test to generate p values as a measure of significance. […] In FIG. 14B, we also assessed the activity of an mRNA that was made with the “TC” Template and capped with ARCA (Cap 0). […]

T7 RNAP = T7 RNAP (Escherichia phage T7, UniProt P00573); details: transcription initiation; read-out: Kd for the first initiating NTP; cited from earlier work
[4] = excess of ^7mGpppG over pppG from 4:1 to 10:1; cited from earlier work

T1 sequence (P00573 whole entry): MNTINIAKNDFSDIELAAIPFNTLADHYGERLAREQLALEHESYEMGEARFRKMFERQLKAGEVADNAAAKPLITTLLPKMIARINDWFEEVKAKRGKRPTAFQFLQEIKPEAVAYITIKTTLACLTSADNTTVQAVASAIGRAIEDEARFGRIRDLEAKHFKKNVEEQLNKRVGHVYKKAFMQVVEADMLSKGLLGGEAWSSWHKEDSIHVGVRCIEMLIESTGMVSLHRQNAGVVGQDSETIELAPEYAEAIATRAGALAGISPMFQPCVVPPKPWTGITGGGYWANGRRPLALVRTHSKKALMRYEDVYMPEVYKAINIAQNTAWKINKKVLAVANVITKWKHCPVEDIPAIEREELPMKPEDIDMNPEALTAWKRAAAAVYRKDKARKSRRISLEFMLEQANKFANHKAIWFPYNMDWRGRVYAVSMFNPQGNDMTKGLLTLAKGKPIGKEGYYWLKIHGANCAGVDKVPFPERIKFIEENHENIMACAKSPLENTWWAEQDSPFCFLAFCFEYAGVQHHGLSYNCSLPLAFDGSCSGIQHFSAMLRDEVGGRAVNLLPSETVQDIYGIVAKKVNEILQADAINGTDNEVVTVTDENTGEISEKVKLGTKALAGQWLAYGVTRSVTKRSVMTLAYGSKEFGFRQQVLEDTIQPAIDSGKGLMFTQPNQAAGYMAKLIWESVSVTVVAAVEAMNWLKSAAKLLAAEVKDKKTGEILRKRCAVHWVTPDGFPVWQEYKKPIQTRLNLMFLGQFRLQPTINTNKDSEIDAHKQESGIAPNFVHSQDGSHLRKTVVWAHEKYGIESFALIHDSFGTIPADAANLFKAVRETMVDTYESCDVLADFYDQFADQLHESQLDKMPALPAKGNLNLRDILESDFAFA
T7 RNAP, sequence (P00573 whole entry): as above

^m7G3′OmepppG2′OmepG
observed % capping (capping efficiency) (T7 RNA polymerase [1]): 87%

^m7GpppA2′OmepG
observed % capping (capping efficiency) (T7 RNA polymerase [1]): 99%
fidelity of templated transcription initiation (T7 RNA polymerase [2]; template +1/+2 2′-deoxythymidine/2′-deoxycytidine, Formulations 2 and 3 (FIGS. 13A, 13B)): Only minor aberrant initiation products were detected
capping efficiency (T7 RNA polymerase [2]; template +1/+2 2′-deoxythymidine/2′-deoxycytidine, Primer/NTP Formulation 2 (FIG. 13A)): 99%
capping efficiency (T7 RNA polymerase [2]; template +1/+2 2′-deoxythymidine/2′-deoxycytidine, Primer/NTP Formulation 3 (FIG. 13B)): 96%
fidelity of templated transcription initiation (T7 RNA polymerase [2]; template +1/+2 cytidine, Formulations 2 and 3 (FIGS. 13C, 13D)): initiated in two registers
calculated capping efficiency (Cap 1+A and Cap 1 GtoA) (T7 RNA polymerase [2]; template +1/+2 cytidine, Primer/NTP Formulation 2 (FIG. 13C)): 97%
calculated capping efficiency (Cap 1+A and Cap 1 GtoA) (T7 RNA polymerase [2]; template +1/+2 cytidine, Primer/NTP Formulation 3 (FIG. 13D)): 77%
purified transcription yield (T7 RNA polymerase [3]; template +1/+2 2′-deoxythymidine/2′-deoxycytidine, Primer/NTP Formulation 2): 0.7 mg/mL
purified transcription yield (T7 RNA polymerase [3]; template +1/+2 2′-deoxythymidine/2′-deoxycytidine, Primer/NTP Formulation 3): 3.9 mg/mL
purified transcription yield (T7 RNA polymerase [3]; template +1/+2 cytidines, Primer/NTP Formulation 2): 0.6 mg/mL
purified transcription yield (T7 RNA polymerase [3]; template +1/+2 cytidines, Primer/NTP Formulation 3): 3.9 mg/mL
translation (luciferase activity), "TC" template vs "CC" template (THP-1 cells; 20 hours post-transfection, Primer/NTP Formulations 2 and 3 (FIG. 14A, 14B)): significantly superior

Nc1nc2c(ncn2[C@@H]2O[C@H](COP(=O)(O)OP(=O)(O)OP(=O)(O)O)[C@@H](O)[C@H]2O)c(=O)[nH]1 [GTP, guanosine triphosphate]
Kd (T7 RNAP): 2000 µM

^7mG(3′-O-Me)pppG [^m7G3′OmepppG, reference compound]
observed % capping (capping efficiency) (T7 RNA polymerase [1]): 79%
luciferase activity relative to transcripts made with ^m7GpppA2′OmepG on "TC" template (THP-1 cells; "TC" template, 20 hours post-transfection (FIG. 14B)): significantly less activity

^m7G3′OmepppC2′OmepG
observed % capping (capping efficiency) (T7 RNA polymerase [1]): 97%

^m7G3′OmepppA2′OmepG
observed % capping (capping efficiency) (T7 RNA polymerase [1]): 99%

^m7GpppG2′OmepG
observed % capping (capping efficiency) (T7 RNA polymerase [1]): 89%

^m7GpppC2′OmepG
observed % capping (capping efficiency) (T7 RNA polymerase [1]): 98%

^m7GpppA2′OmepG2′OmepG
observed % capping (capping efficiency) (T7 RNA polymerase [1]): 50%

^7mG(5′)ppp(5′)G [^7mGpppG]
5′-Cap structure mRNA transcripts [4]: 80-90%
